Data published in ChEMBL document CHEMBL4613311, “Synthesis of Novel G Factor or Chloroquine-Artemisinin Hybrids and Conjugates with Potent Antiplasmodial Activity” (ACS Med Chem Lett, 2020).

How the values were obtained:
Plasmodium falciparum [1] = experiment: Antiplasmodial activity against chloroquine resistant Plasmodium falciparum FcB1/Columbia infected in human erythrocytes preincubated for 24 hrs followed by [3H]-hypoxanthine addition and measured after 24 hrs by liquid scintillation analysis; type: functional, organism-based
[2] = Selectivity index, ratio of IC50 for human AB943 cells to IC50 for antiplasmodial activity against chloroquine resistant Plasmodium falciparum FcB1/Colombia infected in human erythrocytes; type: toxicity, cell-based; details: read-out: Ratio IC50
Plasmodium falciparum [3] = experiment: Antiplasmodial activity against chloroquine resistant Plasmodium falciparum FcB1/Columbia infected in human erythrocytes at 10 nM preincubated for 24 hrs followed by [3H]-hypoxanthine addition and measured after 24 hrs by liquid scintillation analysis relative to control; type: functional

| Structure (SMILES) | IC50 (Plasmodium falciparum [1]) [nM] | selectivity ratio [2] | inhibition at 0.01 µM (Plasmodium falciparum [3]) [%] |
| --- | --- | --- | --- |
| C[C@@H]1CC[C@H]2[C@@H](C)C(=O)O[C@@H]3O[C@@]4(C)CC[C@@H]1[C@]32OO4 [ARTEMISININ] | 55 | > 4540 | – |
| COC12OOC3(C=C1C(=O)C(C)(C)C(=O)C2(C)C)CCN(C(=O)CCC(=O)NCCCCN(CCCNC(=O)CCC(=O)N1CCC2(C=C4C(=O)C(C)(C)C(=O)C(C)(C)C4(OC)OO2)CC1)C(=O)CCC(=O)NCCNc1ccnc2cc(Cl)ccc12)CC3 (stereo not drawn) | > 167 | – | – |
| COC12OOC3(C=C1C(=O)C(C)(C)C(=O)C2(C)C)CCN(C(=O)CCC(=O)NCC[C@H]1O[C@@H]2O[C@@]4(C)CC[C@H]5[C@H](C)CC[C@@H]([C@H]1C)[C@@]25OO4)CC3 (stereo partly drawn) | 124 | 144 | – |
| COC12OOC3(C=C1C(=O)C(C)(C)C(=O)C2(C)C)CCNCC3 (stereo not drawn) | > 250 | – | – |
| COC12OOC3(C=C1C(=O)C(C)(C)C(=O)C2(C)C)CCN(C(=O)CCC(=O)N(CCCCNC(=O)CC[C@H]1O[C@@H]2O[C@@]4(C)CC[C@H]5[C@H](C)CC[C@@H]([C@H]1C)[C@@]25OO4)CCCCNC(=O)CC[C@H]1O[C@@H]2O[C@@]4(C)CC[C@H]5[C@H](C)CC[C@@H]([C@H]1C)[C@@]25OO4)CC3 (stereo partly drawn) | 10.6 | 983 | – |
| C[C@H]1[C@@H](CCC(=O)NCCNc2ccnc3cc(Cl)ccc23)O[C@@H]2O[C@@]3(C)CC[C@H]4[C@H](C)CC[C@@H]1[C@@]24OO3 | – | – | 11 |
| COC12OOC3(C=C1C(=O)C(C)(C)C(=O)C2(C)C)CCN(C(=O)CC[C@H]1O[C@@H]2O[C@@]4(C)CC[C@H]5[C@H](C)CC[C@@H]([C@H]1C)[C@@]25OO4)CC3 (stereo partly drawn) | 2.6 | 16400 | – |
| COC12OOC3(C=C1C(=O)C(C)(C)C(=O)C2(C)C)CCN(C(=O)CCC(=O)N(CCCCNC(=O)CC[C@H]1O[C@@H]2O[C@@]4(C)CC[C@H]5[C@H](C)CC[C@@H]([C@H]1C)[C@@]25OO4)CCCNC(=O)CC[C@H]1O[C@@H]2O[C@@]4(C)CC[C@H]5[C@H](C)CC[C@@H]([C@H]1C)[C@@]25OO4)CC3 (stereo partly drawn) | 8.4 | 2110 | – |
| C[C@H]1[C@@H](CCC(=O)NCCCCN(CCCCNC(=O)CC[C@H]2O[C@@H]3O[C@@]4(C)CC[C@H]5[C@H](C)CC[C@@H]([C@H]2C)[C@@]35OO4)C(=O)CCC(=O)NCCNc2ccnc3cc(Cl)ccc23)O[C@@H]2O[C@@]3(C)CC[C@H]4[C@H](C)CC[C@@H]1[C@@]24OO3 | 52.3 | 328 | – |
| C[C@H]1[C@@H](CCC(=O)NCCCCN(CCCNC(=O)CC[C@H]2O[C@@H]3O[C@@]4(C)CC[C@H]5[C@H](C)CC[C@@H]([C@H]2C)[C@@]35OO4)C(=O)CCC(=O)NCCNc2ccnc3cc(Cl)ccc23)O[C@@H]2O[C@@]3(C)CC[C@H]4[C@H](C)CC[C@@H]1[C@@]24OO3 | – | – | 33 |
| COC12OOC3(C=C1C(=O)C(C)(C)C(=O)C2(C)C)CCN(C(=O)CCC(=O)NCCCCN(CCCCNC(=O)CCC(=O)N1CCC2(C=C4C(=O)C(C)(C)C(=O)C(C)(C)C4(OC)OO2)CC1)C(=O)CCC(=O)NCCNc1ccnc2cc(Cl)ccc12)CC3 (stereo not drawn) | > 167 | – | – |
| C[C@H]1[C@@H](CCC(=O)N2CCN(c3ccnc4cc(Cl)ccc34)CC2)O[C@@H]2O[C@@]3(C)CC[C@H]4[C@H](C)CC[C@@H]1[C@@]24OO3 | – | – | 11 |
